According to US10865384B2, “2,4,5-tri-substituted azole-based casein kinase 1 inhibitors as inducers for cardiomyogenesis” (AGENCY FOR SCIENCE, TECHNOLOGY AND RESEARCH, priority 2014, dated 2020):

Experiments:
H3 hESCs Nkx2.5eGFP/w = test: High yield cardiomyocyte differentiation after 24 h CHIR99021 pre-treatment; format: cell-based, human
p38α MAPK = details: read-out: IC50 (published by companies), p38α MAPK inhibition; cited from earlier work
p38β MAPK = p38β MAPK (Homo sapiens (Human), UniProt Q15759); details: read-out: IC50 (published by companies), p38β MAPK inhibition; cited from earlier work
p38β MAPK, sequence (Q15759 whole entry): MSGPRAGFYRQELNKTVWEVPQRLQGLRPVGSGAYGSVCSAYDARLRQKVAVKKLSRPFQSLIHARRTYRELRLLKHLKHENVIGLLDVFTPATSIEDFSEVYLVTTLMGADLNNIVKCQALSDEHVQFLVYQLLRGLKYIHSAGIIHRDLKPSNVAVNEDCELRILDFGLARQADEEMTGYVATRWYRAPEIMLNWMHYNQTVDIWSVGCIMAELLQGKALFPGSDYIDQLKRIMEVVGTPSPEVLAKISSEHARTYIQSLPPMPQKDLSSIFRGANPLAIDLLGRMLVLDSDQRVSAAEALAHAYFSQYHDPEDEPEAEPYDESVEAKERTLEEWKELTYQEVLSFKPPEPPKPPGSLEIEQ

PKD1 = PKD1 (Homo sapiens (Human), UniProt Q15139); details: read-out: IC50 (published by companies), PKD1 inhibition; cited from earlier work
PKD1, sequence (Q15139 whole entry): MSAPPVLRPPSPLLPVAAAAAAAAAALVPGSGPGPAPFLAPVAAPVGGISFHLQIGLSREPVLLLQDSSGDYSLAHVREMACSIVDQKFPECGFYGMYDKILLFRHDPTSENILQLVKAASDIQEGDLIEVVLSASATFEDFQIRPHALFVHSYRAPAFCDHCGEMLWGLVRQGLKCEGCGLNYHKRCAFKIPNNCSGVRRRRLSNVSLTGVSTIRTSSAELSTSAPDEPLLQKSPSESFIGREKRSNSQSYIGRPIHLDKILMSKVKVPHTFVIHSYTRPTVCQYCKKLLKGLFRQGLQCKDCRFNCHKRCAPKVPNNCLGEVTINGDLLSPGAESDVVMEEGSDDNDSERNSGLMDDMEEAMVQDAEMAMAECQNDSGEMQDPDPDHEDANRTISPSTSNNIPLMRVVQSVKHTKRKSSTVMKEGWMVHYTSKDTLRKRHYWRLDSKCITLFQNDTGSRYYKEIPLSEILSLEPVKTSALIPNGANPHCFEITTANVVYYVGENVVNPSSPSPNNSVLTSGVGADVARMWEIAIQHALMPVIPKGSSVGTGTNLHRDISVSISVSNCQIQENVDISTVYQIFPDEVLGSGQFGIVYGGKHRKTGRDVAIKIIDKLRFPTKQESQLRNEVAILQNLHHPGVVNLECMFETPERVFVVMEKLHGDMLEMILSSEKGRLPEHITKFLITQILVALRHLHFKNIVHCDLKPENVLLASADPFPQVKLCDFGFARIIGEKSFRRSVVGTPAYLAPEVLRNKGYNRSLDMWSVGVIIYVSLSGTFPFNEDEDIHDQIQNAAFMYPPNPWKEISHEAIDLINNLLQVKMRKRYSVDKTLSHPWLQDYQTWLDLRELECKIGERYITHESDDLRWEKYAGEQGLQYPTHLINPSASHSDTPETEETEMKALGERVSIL

CK1 = details: read-out: IC50 (published by companies), CK1 inhibition; cited from earlier work
[1] = CHIR99021 only, CHIR99021 with SB203580 (days 1-8), CHIR99021 with IM-31 (days 4-8)

Cc1c[nH]c(-c2cnc(NCCNc3ccc(C#N)cn3)nc2-c2ccc(Cl)cc2Cl)n1 [CHIR99021]
Average beating frequency (H3 hESCs Nkx2.5eGFP/w; [1]): 25-30 beats per minute
Beat count (percentage of EBs contracting within 10 s) (H3 hESCs Nkx2.5eGFP/w; [1]): over 75%
Beating area (H3 hESCs Nkx2.5eGFP/w; [1]): > 5 mm^2
Nkx2.5 population (H3 hESCs Nkx2.5eGFP/w; day 11, flow cytometry, 3 μM CHIR99021 for 24 h): 30%
IC50 (p38α MAPK): 10 nM
IC50 (p38β MAPK): 6.7 nM

NC(=O)c1ccc(-c2nc(-c3ccc4c(c3)OCCO4)c(-c3ccccn3)[nH]2)cc1 [Compound D4476]
IC50 (p38α MAPK): 5800 nM
IC50 (PKD1): 9100 nM
